Where no end group is shown, it is not given here.
Columns and labels:
[1] = tested on: insulin receptors of lipid cells; experiment: Insulin binding to trypsinated lipid cells; assay type: cell-based; settings: octapeptide introduced into the medium; trypsinated cells alone no longer fix insulin
Text: In an attempt to elucidate the mechanism of action of the octapeptide (I) with respect to insulin, the phenomena were first studied at the level of the insulin receptors of lipid cells trypsinated to destroy said receptors.

[2] = tested on: diabetic rats; experiment: Effect on glycemia in diabetic animals; assay type: in vivo; settings: glucose 0.5 g/kg; for course of glycemia after simultaneous injection with glucose: diabetic rats fasted 4 hours, octapeptide 2 μg/g
Method: In this test, the drop in glycemia was compared after the simultaneous injection of glucose, on the one hand, and, on the other hand, either of the octapeptide at the dosage of 2 μg (I), or of insulin, or again of both at once. In that latter case the dosage of octapeptide used was also 2μg/g. The tests were carried out on diabetic rats, kept fasting for 4 hours before the injection of glucose (at the dose of 0.5 g/kg of animal).

[3] = tested on: mice; experiment: Influence on glycemia in mice after glucose injection; assay type: in vivo
Text: d. Influence of octapeptide (I) on glycemia has been determined in mice under conditions similar to those described for rabbits. The experiment included two series of tests aimed at studying the immediate effects and the prolonged effects.
In the first series of tests, a simultaneous injection of glucose and of the octapeptide (1) was made, and the lowering of glycemia with respect to that of control animals which had not received glucose, was followed as a function of time.
The injections were respectively of 0.25 g of glucose and 2 mg per kilo of body weight of the animal, namely about 40 μg, of octapeptide (I) or […].
In the second series of tests, the mice received the product before the injection of glucose. Three injections each of 40μg of octapeptide (1) were administered respectively 72, 48 and 24 hous before the injection of glucose.

[4] = tested on: isolated hemidiaphragm of the rat; experiment: Consumption of glucose in vitro, isolated rat hemidiaphragm; assay type: cell-based, Wistar albino male rats
Method: To follow this consumption, the isolated hemidiaphragm of the rat in vitro was used. The method employed is that described by Park et al. (Effect of insulin on free glucose content of rat diaphragm in vitro -- Amer. J. Physiol. 182 : 12 - 16, 1955). The hemidiaphragm derived from Wistar albino male rats each weighing 200 to 250 g was used. The rats were fed freely for 7 days and then starved for 24 hours. The solutions studied contained 2 mg/ml of glucose, 500 μU/ml of insulin. The compound (I) was introduced at 250 μg/ml. The consumption of glucose related to the weight of tissue in grams and per hour was under these conditions: […]

[5] = tested on: hepatic cells; experiment: Insulin binding to hepatic cells; assay type: cell-based
Method: In the same way, the ratio of insulin binding to hepatic cells placed in a suitable reaction medium was measured. When the medium contains octapeptide (I), the ratio of insulin binding to the hepatic cells increases. The result is similar if the said cells are incubated with octapeptide (I).

[6] = tested on: mice; experiment: Tolerance: acute and subacute toxicity study in mice; assay type: in vivo; settings: 1 month, daily dosages 5 to 10 times the active dosage
Method: An acute and subacute toxicity study was carried out on mice for 1 month, each mouse receiving daily dosages corresponding to 5 to 10 times the active dosage.

[7] = tested on: glucose receptors of the Langerhans islets; experiment: Glucose-stimulated insulin liberation from Langerhans islets of treated animals; assay type: cell-based; settings: islets removed one day or four days after injection of octapeptide; versus controls
Method: Finally, the effect of the octapeptide (I) on the glucose receptors of the Langerhans islets was determined. For this purpose, the octapeptide (I) was injected into animals.
One day or four days later, the animals were killed and the islets of Langerhans removed. The latter were placed in a reaction medium supplemented with glucose, and the amount of insulin liberated was determined and compared tocontrols.

[8] = target: glyceraldehyde 3-phosphate dehydrogenase (Homo sapiens, UniProt P04406); experiment: Enzymatic effect in vitro: lifting of somantine inhibition of glyceraldehyde 3-phosphate dehydrogenase; assay type: biochemical
Chain of glyceraldehyde 3-phosphate dehydrogenase (P04406 whole entry, species assumed): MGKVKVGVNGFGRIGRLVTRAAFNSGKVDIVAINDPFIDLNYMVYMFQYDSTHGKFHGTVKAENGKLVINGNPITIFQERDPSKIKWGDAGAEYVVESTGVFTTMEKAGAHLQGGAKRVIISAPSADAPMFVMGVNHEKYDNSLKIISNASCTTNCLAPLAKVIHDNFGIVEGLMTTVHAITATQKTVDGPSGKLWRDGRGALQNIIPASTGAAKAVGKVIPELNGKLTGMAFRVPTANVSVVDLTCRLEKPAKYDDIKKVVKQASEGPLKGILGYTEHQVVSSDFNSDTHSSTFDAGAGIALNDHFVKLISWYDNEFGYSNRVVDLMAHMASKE
Method: In this test, the compound (I) was tested for its ability to raise the inhibition of a somantine extracted from a plasma with respect to the action of glyceraldehyde 3-phosphate dehydrogenase.
To this end, the activity of the enzyme in the presence successively of somantine alone, of the compound (1) alone, and finally in the presence of somantine and of the compound (I), were measured.
In this test, the glyceraldehyde 3-phosphate dehydrogenase was used at a concentration of […], the somantine at 25 μg/ml, and the compound (I) at 50 μg/ml.
The method used for the measurements is that of Pihl and Lang (J. Biol. Chem 237 : 1356 - 1362, 1962).
The percentage of inhibition of the enzyme found under these conditions is as follows: […]

[9] = tested on: adult rabbits; experiment: Effect on the in vivo effect of insulin: intravenous glucose tolerance in the rabbit
Method: The assays were carried out in the course of the tests carried out to determine the resistance to glucose injected by the intravenous route in the rabbit.
These tests were done on adult rabbits, which had been subjected to prior fasting for 24 hours. Blood was drawn off and the glucose level in the blood samples was determined. The measurement was carried out by the ferricyanide method as adapted for the "Technicon Autoanalyser" (J. Biol. Chem. 120 : 51 - 55, 1937). In this way the glucose level on fasting, then its variation after the intravenous injection of glucose, at the dose of 1 gram per kilo, was determined. These measurements were then renewed in rabbits which had received, 5 minutes after the glucose, an intravenous injection of the compound (1) (5μg/kg).

Substance | insulin binding to trypsinated lipid cells [1] | course of glycemia after simultaneous injection with glucose [2] | drop in glycemia, immediate effect ([3]; simultaneous injection of glucose and about 40 μg octapeptide, versus controls) | drop in glycemia, prolonged effect ([3]; three injections of 40 μg at 72, 48 and 24 hours before glucose, versus controls receiving only glucose) | consumption of glucose in the presence of insulin (in words) ([4]; compound (I) 250 μg/ml added to glucose + insulin) | ratio of insulin binding to hepatic cells ([5]; cells incubated with octapeptide (I)) | ratio of insulin binding to hepatic cells ([5]; medium contains octapeptide (I)) | toxic effect, macro and microscopic studies [6] | level of insulin liberated by Langerhans islets in glucose-supplemented medium [7] | effect on the inhibiting effect of somantine (in words) ([8]; compound (I) 50 μg/ml together with somantine 25 μg/ml) | effect on the activity of the enzyme (in words) ([8]; compound (I) alone, 50 μg/ml) | inhibition at 50 µg/mL ([8]; enzyme 0.5 μml, somantine 25 μg/ml, compound (I) 50 μg/ml, read-out: percentage of inhibition of the enzyme) [%] | glucose level reached, compared with fasting level ([9]; glucose 1 g/kg i.v., compound 5 μg/kg i.v.) | decrease in the glucose level after i.v. glucose ([9]; glucose 1 g/kg i.v., compound 5 μg/kg i.v. 5 minutes after glucose, versus rabbits without compound) | persistence of effect on the carbohydrate metabolism after injection ([9]; similar tests at intervals of several days) | time after which glycemia rises again ([2]; diabetic rats) | Consumption of glucose ([4]; related to weight of tissue in grams and per hour, glucose 2 mg/ml, insulin 500 μU/ml, compound (I) 250 μg/ml) [mg]
LSRLFDNA [compound (I), leucyl--seryl--arginyl--leucyl--phenylalanyl--aspartyl--asparaginyl-alanine] | the binking reasppears | practically unmodified | distinctly more accentuated | more rapid drop in glycemia | increased | similar | increases | not shown any toxic effect | very substantial increase | partly suppressed | practically without effect | 1 | less than those which were measured in the fasting rabbits | greater | persists several days |  | 
insulin: insulin, 500 μU/ml in glucose solution in the hemidiaphragm test |  | decreases rapidly, stabilises, then rises again |  |  |  |  |  |  |  |  |  |  |  |  |  | about 120 minutes | 4.10 ± 0.15
